Test results: US11649228B2, “Zinc indicators for cellular imaging” (The Board of Regents of the University of Texas System, priority 2018, dated 2023)
pKd: −log10 of the molar value.

Experiments:
[1] = Metal ion selectivity of fluorescence response; format: physicochemical; conditions: 1 μM sensor, 10 μM TPEN; against Na^+, K^+, Ca^2+, Mg^2+, Fe^2+, Ni^2+, Co^2+, Cu^2+, Mn^2+
Method: To study the metal selectivity, the fluorescence of ZIGIR-1 (1 μM) or ZIGIR-2 (1 μM) was measured in the presence of 10 μM TPEN and an excess of metal ion including 1 mM KCl, 1 mM NaCl, 1 mM CaSO4, 1 mM MgSO4, 15 μM MnSO4, 15 μM FeSO4, 15 μM NiSO4, 15 μM CoCl2, 15 μM CuSO4, 15 μM CdSO4 or 15 μM ZnSO4. The emission intensity was normalized to that of 15 μM ZnSO4 (100%).

[2] = Zn^2+ titration of ZIGIRs by fluorescence emission (Hill plot); format: binding
Method: UV-Vis spectra were recorded in a 1-cm path quartz cell on a Shimadzu 2401 PC spectrometer. Fluorescence excitation and emission spectra were recorded on a Fluorolog 3 spectrometer (Jobin-Yvon Horiba, Edison, N.J.). Zinc titration was performed by adding ZIGIRs (0.5 μM final concentration) to buffered Zn^2+ solutions containing 100 mM HEPES (pH 7.4). Nitrilotriacetic acid (NTA, 10 mM) and varying concentrations of ZnSO4 (0-9 mM) were mixed to reach free Zn^2+ concentrations between 0.1 nM and 40 nM (Li et al., 2011). Zn^2+ concentrations above 40 nM were controlled by iminodiacetate (IDA, 10 mM) and varying amounts of ZnSO4 (0-9.7 mM) in 100 mM HEPES (pH 7.4; Sasaki et al., 2011). To determine Zn^2+ binding dissociation constants (Kd(Zn^2+)), the Zn^2+ titration data were fitted to the least square exponential equation (Prism 7). Fluorescence quantum yields of ZIGIRs at pH 7.5 were determined using rhodamine 6G as the reference (Φfl=0.94 in MeOH; Magde et al., 2002). An example in shown FIGS. 11A0B. To examine the pH sensitivity of ZIGIRs, the fluorescence emission spectra was recorded from pH 3-9.4 in either nominally Zn^2+-free solutions containing 5 mM iminodiacetate or in 25 μM ZnSO4 solutions. The pH was controlled with 10 mM pH buffers including chloroacetic acid (pH 3.1), acetate (pH 4.1 and 5.0), 2-morpholinoethanesulfonic acid (MES, pH 6.14), HEPES (pH 7.5) and N-cyclohexyl-2-aminoethanesulfonic acid (CHES, pH 9.4).

MIN-6 cells = test: Correlation of ZIGIR-2 labeling with insulin immunofluorescence; format: cell-based, mouse; conditions: wide-field microscopy
Method: Confocal imaging of ZIGIR-2 labeled MIN-6 cells appeared to be heterogenous, with numerous ZIGIR-2 positive puncta in some cells while few in others (FIG. 6B). The MIN-6 cell is a transformed β-cell line derived from a mouse insulinoma. […] To investigate how ZIGIR-2 staining correlates with the distribution of insulin granules, insulin immunofluorescence was performed on the same MIN-6 cells after ZIGIR-2 imaging. […] To further analyze MIN-6 cells that were differentially labeled with ZIGIR-2, and to address whether ZIGIR-2 staining correlated with other cellular organelles, MIN6 cells were separated into ZIGIR-2-High and ZIGIR-2-Low subsets based on ZIGIR-2 fluorescence intensity using fluorescence-activated cell sorting (FACS; FIG. 7E). The sorted cells were then compared by immunofluorescence using antibodies against insulin, NPC-1 (a marker protein of late endosome/lysosome; Patel et al., 1999 and Higgins et al., 1999), or GM130 (a Golgi marker protein; Nakamura et al., 1995). […]
To correlate the intensity of ZIGIR-2 labeling and cellular insulin content by imaging, MIN-6 cells were first labeled and seeded on a 35 mm MatTek glass dish with ZIGIR-2. Cells were then imaged on a wide field fluorescence microscope (Axiovert 200, Carl Zeiss) equipped with an EMCCD camera (iXon 897, Andor) through a 40× oil objective. […]

pKd ([2]; 100 mM HEPES pH 7.4): 6.51
pKd ([2]; Table 2): 6.09
Compound: CN(C)c1ccc2c(-c3ccc(NCCN(CCc4ccccn4)Cc4ccccn4)cc3C(=O)[O-])c3ccc(=[N+](C)C)cc-3oc2c1 [ZIGIR-2]
selectivity of fluorescence response for Zn^2+ [1]: selective for Zn^2+
FC (fold change in fluorescence brightness ϕfl×ε from Zn^2+-free to Zn^2+-bound state) [2]: 34
Zn^2+ response (fold change) ([2]; Table 2): 34×
Pearson's R value of cellular ZIGIR-2 intensity versus insulin immunofluorescence (MIN-6 cells): 0.79±0.05
